Measurements: US12576137B2, “Collagen hydrolysate comprising GPCR ligand peptide” (Industry-Academic Cooperation Foundation, Yonsei University, priority 2021, dated 2026)

Legend:
[1] = tested on: Caco-2 cells; experiment: Wound healing (scratch) assay; assay type: cell-based, human; settings: pre-incubated with 0.1 μM CID 2745687
[2] = tested on: ERK1/2 signaling pathway; settings: pre-treated with 0.1 μM CID 2745687 for 1 hour

For `CCCOc1ccccc1-c1nc2nn[nH]c2c(=O)[nH]1` [zaprinast], the “wound-healing activity after GPR35 inhibition” value [1] was “abolished” and the “ERK1/2 phosphorylation increase when treated with CID 2745687” value [2] was “reversed”.
“human epidermal growth factor [EGF, a well-known wound therapeutic agent, positive control]” was tested, and the “wound-healing activity after GPR35 inhibition” value [1] was “not inhibited”.
